From paper PMC4168161, “A novel approach for the discovery of chemically diverse anti-malarial compounds targeting the Plasmodium falciparum Coenzyme A synthesis pathway” (Malaria Journal, 2014)
Several values for one entry are separate records, joined by “and”; a condition that tells them apart may be missing. Equal values may be shown once.

Assays:
[1] = system: HEK293 cells; assay: HEK293 viability assay (resazurin); type: cell-based, human; conditions: for IC50: HEK293, 72 hr, top concentration 40 μM, n = 3
Method: (§1) To assess cytotoxicity of compounds in dose response, a resazurin-based assay was utilized to determine cell viability. In brief, HEK293 cells were grown in DMEM medium (Life Technologies) containing 10% foetal calf serum (FCS; Gibco). Cells were trypsinized, counted and seeded at 2,000 cells per well in 45 μl media into TC-treated 384-well plates (Falcon) and left to adhere overnight at 37°C, 5% CO2 and 95% humidity.
(§2) Test compounds were prepared as described above, to give a top final test concentration of 40 μM, 0.4% DMSO. Plates were incubated for 72 hr at 37°C, 5% CO2 and 95% humidity, then the media was removed and replaced by 35 μl of 44 μM resazurin in DMEM without FCS. The plates were incubated for another 4-6 hr at 37°C, 5% CO2 and 95% humidity before reading on an EnVision® Plate Reader (PerkinElmer) using fluorescence excitation/emission settings of 530 nm/595 nm. Determination of the% growth compared to controls (40 μM puromycin as positive and 0.4% DMSO as negative control) was performed in Microsoft® Excel 2010. Statistical analysis including IC50 determination and graphical output was performed in GraphPad Prism® 5 using nonlinear regression variable slope curve fitting.

[2] = system: Plasmodium falciparum strain 3D7; assay: Plasmodium falciparum growth inhibition imaging assay; type: cell-based; conditions: for P. falciparum growth: 3D7, dose response; for P. falciparum growth / IC50: n = 3; for IC50: P. falciparum 3D7, 72 hr; for parasite growth inhibition: 2 μM
Method: (§3) In vitro parasite culture was maintained in RPMI with 10 mM Hepes (Life Technologies), 50 μg/ml hypoxanthine (Sigma) and 5 mg/ml AlbuMAX II® (Life Technologies). Human O + erythrocytes were obtained from the Australian Red Cross Blood Service (Agreement No: 13-04QLD-09). The parasites were maintained at 2-8% parasitaemia (% P) at 5% haematocrit (% H), incubated at 37°C, 5% CO2, 5%O2 and 90% N2 and 95% humidity. The well-established P. falciparum imaging assay was modified to allow assessment of chemical rescue with CoA. In brief, sorbitol (5% w/v) synchronization was performed twice, approximately 8 hr apart, on each synchronization day for two consecutive ring cycles, i.e., on day 1 and 3 of assay preparation. On day 2 the culture was split to approximately 2% trophozoite parasitaemia. On day 4 the culture was split to 1-1.5% trophozoite parasitaemia, which yielded approximately 8% ring parasitaemia after 48 hr (on day 5, i.e., the day of the assay set-up). Compound stocks (10 mM in 100% DMSO) were diluted 1:25 in sterile water, less than 24 hr prior to use. An additional 1:10 dilution was performed, resulting in a 1:250 overall compound dilution and a final DMSO concentration of 0.4%. For initial screening, compounds were tested at a final 2 μM concentration. For dose response curves of the active compounds, a semi-logarithmic serial dilution (containing three data points per log) was prepared at 40 μM top concentration for test compounds and 2 μM for the positive control, artemisinin. The known P. falciparum CoA synthesis inhibitor, panthenol, was prepared as a 100 mM solution in 4% DMSO. The final concentration of the dose response curve of panthenol started at 10 mM and was serially diluted down to 100 nM. CoA was dissolved in water. The final CoA concentration for optimal rescue results was determined for each CoA batch and ranged between 0.8-2 mM. Five μl of the 1:25 diluted test compound or control solutions were added to 384-well CellCarrier imaging plates (PerkinElmer). For the chemical rescue, 5 μl of CoA solution were added to ‘rescue’ wells and 5 μl water to all control and reference wells, respectively. Parasite culture was added to a final concentration of 1% parasitaemia (% P) and 0.3% haematocrit (% H). Plates were incubated for 72 hr at 37°C, 5% CO2 and 95% humidity. On day 8 the permeabilization and nuclear staining buffer was prepared in PBS containing 10 μg/ml saponin, 0.01% triton X, 5 mM EDTA (all: Sigma) and 0.5 μg/ml 4′,6-diamidino-2-phenylindole (DAPI; Life Technologies). The plates were left for at least 4 hr (typically overnight), before confocal imaging on an Opera™ High Content Screening Platform (PerkinElmer) at 405 nm excitation with a 20x water objective. Automated primary image analysis was performed concurrent with the imaging process, utilizing an Acapella® software (PerkinElmer) script to determine the number of parasites based on object size and fluorescence intensity. Determination of the % growth compared to controls (2 μM artemisinin as positive and 0.4% DMSO as negative control) was performed in Microsoft® Excel 2010. Statistical analysis including IC50 determination and graphical output was performed in GraphPad Prism® 5 using non-linear regression variable slope curve fitting.

[3] = system: P. falciparum CoA synthesis pathway; assay: Coenzyme A chemical rescue assay on P. falciparum; type: cell-based, Plasmodium falciparum; conditions: for CoA rescue (relative parasite number, % of untreated control): at 2 μM compound, with CoA supplementation; for IC50 shift upon CoA supplementation / antiplasmodial activity of control compounds upon CoA supplementation: eight-point dose response, n = 2; for IC50 shift upon CoA supplementation: fixed CoA (0.8-2 mM); for antiplasmodial activity of control compounds upon CoA supplementation: fixed CoA
Method: as §3, with “The” for “In vitro parasite culture was maintained in RPMI with 10 mM Hepes (Life Technologies), 50 μg/ml hypoxanthine (Sigma) and 5 mg/ml AlbuMAX II® (Life Technologies). Human O + erythrocytes were obtained from the Australian Red Cross Blood Service (Agreement No: 13-04QLD-09). The parasites were maintained at 2-8% parasitaemia (% P) at 5% haematocrit (% H), incubated at 37°C, 5% CO2, 5%O2 and 90% N2 and 95% humidity. The”, “For dose response curves of the active compounds, a semi-logarithmic serial dilution (containing three data points per log) was prepared at 40 μM top concentration for test compounds and 2 μM for the positive control, artemisinin.” left out, “The final CoA concentration for optimal rescue results was determined for each CoA batch and ranged between 0.8-2 mM.” left out, “fitting. Cell-based high throughput screening (HTS) entails the distinct benefit that positive hits have already proven effective against the live parasite within its natural host erythrocyte environment. Modifications of an image-based assay were undertaken to identify compounds that interfere with the P. falciparum CoA pathway. The modification involved a chemical rescue approach adapted from a similar method used to investigate apicoplast function. The principle idea of the chemical rescue approach is that supplementation of an unbranched pathway’s end product – in this case CoA - should abrogate, or at least alleviate, negative growth effects of compounds inhibiting any step in the pathway. […] To identify new potential CoA synthesis inhibitors, the CoA chemical rescue approach was used to screen 144 compounds with known antiplasmodial activity identified by HTS in the Avery laboratory, in addition to the MMV malaria box. […] Compounds which rescued growth to at least 50% of control values and two-fold difference compared to treatment alone, were regarded as partial rescue hits.” for “fitting.”

[4] = system: HEK293 cells; assay: CoA chemical rescue on HEK293 cells; type: cell-based, human; conditions: dose response with and without CoA, n = 2
Method: as §1
as §2, with “Plates” for “Test compounds were prepared as described above, to give a top final test concentration of 40 μM, 0.4% DMSO. Plates”

SMILES | IC50 [1] [µM] | CoA rescue (relative parasite number, % of untreated control) [3] [% rescue at 2 μM] | IC50 shift upon CoA supplementation [3] | cytotoxic effect on HEK293 cells upon CoA addition [4] | antiplasmodial activity of control compounds upon CoA supplementation [3] | other results
Cc1ccc(C(C)C)c(OCc2nc3ccccc3n2C)c1 [Amb1541406] | > 40 | 80 | 1.5 times | – | – | inhibition of P. falciparum 3D7 ([2]; at 40 μM): 85% inhibition at 40 μM
CC(C)(CO)C(O)C(=O)NCCCO (stereo not shown) [Panthenol, panthenol, reference compound] | – | – | – | completely negate | counteracted by CoA | cytotoxicity against HEK293 cells ([1]; at 40 μM): cytotoxic effect; P. falciparum growth [2]: dose-dependent P. falciparum growth inhibitor; CoA rescue of growth inhibitory effect ([3]; CoA supplementation between 1 and 2 mM): fully rescued
CC(=O)C1=C(c2ccccc2)C(=O)c2ccccc2C1=O [Amb4317088] | 2.33 | 80 | more than doubled | reduced upon CoA addition | – | IC50 [2]: 1.23 µM
OC1CCCCC1C1(NC(=S)Nc2ccccc2)CCCCC1 (stereo not shown) [Amb2368822/(MMV665980)] | > 40 | 80 | more than doubled | – | – | parasite growth inhibition ([2]; MMV malaria box screen): 27%; parasite growth inhibition ([2]; original single dose screen, focussed compound library plate): 66%; parasite growth inhibition ([2]; retested twice from freshly dissolved solid): 98% and 90%; compound stability (inferred from lower activity of stored stock solution) ([2]; 100% DMSO stock at -20°C): potentially unstable; SI (selectivity index) ([2]; HEK293 IC50 value divided by P. falciparum IC50 value): > 6.3; IC50 [2]: 6.31 µM; IC50 ([2]; listed as Amb2368822): 6.3 µM
C[C@@H]1CC[C@H]2[C@@H](C)C(=O)O[C@@H]3O[C@@]4(C)CC[C@@H]1[C@]32OO4 [artemisinin, reference compound] | – | – | – | – | not reduced by CoA supplementation | –
CC(C)(COP(=O)(O)OP(=O)(O)OC[C@H]1O[C@@H](n2cnc3c(N)ncnc32)[C@H](O)[C@@H]1OP(=O)(O)O)[C@@H](O)C(=O)NCCC(=O)NCCS [CoA, Coenzyme A] | – | – | – | – | – | P. falciparum growth [2]: not significantly altered
CCc1nc(N)nc(N)c1-c1ccc(Cl)cc1 [pyrimethamine, reference compound] | – | – | – | – | not reduced by CoA supplementation | –
COc1ccc(C[C@H](N)C(=O)N[C@H]2[C@@H](O)[C@H](n3cnc4c(N(C)C)ncnc43)O[C@@H]2CO)cc1 [puromycin, reference compound] | – | – | – | no impact | – | –
